In ChEMBL document CHEMBL1201862, “PubChem BioAssay data set” (2004):
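Each compound was tested at five concentrations against cells in 96-well plates for 48 hours. Abbreviation: GI50, concentration required for 50% inhibition of growth.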 The source made the active and inactive calls. Cut-off read from the data, not from the text of the source: active = GI50 up to about 1.1 µM and inactive = higher.

What was measured:
Test in all cases: inhibition of tumour cell growth, NCI panel, 48 h
COLO 205 = system: COLO 205
HOP-62 = system: HOP-62
SF-539 = system: SF-539
MDA-N = system: MDA-N
NCI-H23 = system: NCI-H23
EKVX = system: EKVX
SK-MEL-28 = system: SK-MEL-28
BT-549 = system: BT-549
HOP-92 = system: HOP-92
MOLT-4 = system: MOLT-4
SR = system: SR
NCI-H226 = system: NCI-H226
SW-620 = system: SW-620
UO-31 = system: UO-31
MCF7 = system: MCF7
Malme-3M = system: Malme-3M
HT-29 = system: HT-29
Hs-578T = system: Hs-578T

Measured: GI50

COc1ccc(C(=O)CC(c2ccc(OC)c(OC)c2)c2c(O)oc3ccccc3c2=O)cc1OC (stereo unspecified)
inactive: COLO 205 > 100 µM | HOP-62 > 100 µM | SF-539 > 100 µM | MDA-N > 100 µM | NCI-H23 > 100 µM | EKVX > 100 µM | SK-MEL-28 > 100 µM | BT-549 > 100 µM | HOP-92 28.4 µM | MOLT-4 > 100 µM | SR > 100 µM | NCI-H226 > 100 µM | SW-620 > 100 µM | UO-31 > 100 µM | MCF7 > 100 µM | Malme-3M > 100 µM | HT-29 > 100 µM | Hs-578T > 100 µM

Cc1cccc2c1CC(C1OC(=O)c3ccccc31)C2=O (stereo unspecified)
inactive: COLO 205 > 100 µM | HOP-62 > 100 µM | SF-539 > 100 µM | MDA-N > 100 µM | NCI-H23 > 100 µM | EKVX > 100 µM | SK-MEL-28 > 100 µM | BT-549 > 100 µM | HOP-92 > 100 µM | MOLT-4 > 100 µM | SR > 100 µM | NCI-H226 > 100 µM | SW-620 > 100 µM | UO-31 > 100 µM | MCF7 > 100 µM | Malme-3M > 100 µM | HT-29 48.5 µM | Hs-578T > 100 µM

Cc1ccn2c(CCc3nnc4cc(C)ccn34)nnc2c1
inactive: COLO 205 > 100 µM | HOP-62 > 100 µM | SF-539 > 100 µM | MDA-N > 100 µM | NCI-H23 > 100 µM | EKVX > 100 µM | SK-MEL-28 > 100 µM | BT-549 > 100 µM | HOP-92 > 100 µM | MOLT-4 > 100 µM | SR 15 µM | NCI-H226 > 100 µM | SW-620 > 100 µM | UO-31 > 100 µM | MCF7 > 100 µM | Malme-3M > 100 µM | HT-29 > 100 µM | Hs-578T > 100 µM

COc1cc(C2=C(c3cc(OC)c4ccccc4c3OC)C(=O)c3ccccc3C2=O)c(OC)c2ccccc12
inactive: COLO 205 > 100 µM | HOP-62 > 100 µM | SF-539 > 100 µM | MDA-N > 100 µM | NCI-H23 > 100 µM | EKVX > 100 µM | SK-MEL-28 > 100 µM | BT-549 > 100 µM | HOP-92 > 100 µM | MOLT-4 > 100 µM | SR > 100 µM | NCI-H226 59.6 µM | SW-620 > 100 µM | UO-31 > 100 µM | MCF7 > 100 µM | Malme-3M 62.5 µM | HT-29 > 100 µM | Hs-578T > 100 µM

Cc1ccc(N)c(S)c1
inactive: COLO 205 22.7 µM | HOP-62 21.5 µM | SF-539 17.5 µM | MDA-N 14.9 µM | NCI-H23 17.7 µM | EKVX 16.2 µM | SK-MEL-28 27.5 µM | BT-549 18.6 µM | HOP-92 16.6 µM | MOLT-4 22 µM | SR 18 µM | NCI-H226 22 µM | SW-620 17.6 µM | UO-31 13.8 µM | MCF7 18.5 µM | Malme-3M 30.5 µM | HT-29 19.4 µM | Hs-578T 38 µM

O=C(NCCCCNCCCNC(=O)c1cc(-c2ccccc2)nc2ccccc12)c1cc(-c2ccccc2)nc2ccccc12
inactive: COLO 205 1.49 µM | HOP-62 1.63 µM | SF-539 2.13 µM | MDA-N 1.83 µM | NCI-H23 1.98 µM | EKVX 1.99 µM | SK-MEL-28 1.83 µM | BT-549 9.66 µM | HOP-92 1.37 µM | MOLT-4 1.42 µM | SR 2.35 µM | NCI-H226 1.78 µM | SW-620 1.71 µM | UO-31 1.7 µM | MCF7 1.64 µM | Malme-3M 1.78 µM | HT-29 1.6 µM | Hs-578T 1.96 µM

COc1ccc2c(c1)N=C1CSC(c3cc([N+](=O)[O-])ccc3Cl)N1C2 (stereo unspecified)
inactive: COLO 205 30.1 µM | HOP-62 32.1 µM | SF-539 28.5 µM | MDA-N 20.1 µM | NCI-H23 22.2 µM | EKVX 18.3 µM | SK-MEL-28 17.2 µM | BT-549 26.2 µM | HOP-92 19.6 µM | MOLT-4 22.5 µM | SR 26.5 µM | NCI-H226 62.8 µM | SW-620 29.3 µM | UO-31 19.6 µM | MCF7 14.8 µM | Malme-3M 23.2 µM | HT-29 23.6 µM | Hs-578T 39.8 µM
